Laboratory results: ChEMBL document CHEMBL1201862, “PubChem BioAssay data set” (2004)
Where “and” joins values, the source holds several entries; their conditions need not be identical. Identical values can stand only once.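 Briefly, cells in 96-well plates were exposed to five compound concentrations for 48 h, and endpoints were estimated by linear interpolation. GI50 is the concentration that inhibits growth by half.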 Calls of active or inactive are those of the source. Rule as the data show it: active = GI50 up to about 1.1 µM and inactive = higher.

Columns and labels:
Assay in all cases: inhibition of tumour cell growth, NCI panel, 48 h
MDA-MB-435 = tested on: MDA-MB-435
NCI-H460 = tested on: NCI-H460
RPMI-8226 = tested on: RPMI-8226
786-0 = tested on: 786-0
NCI-H23 = tested on: NCI-H23
OVCAR-4 = tested on: OVCAR-4
HCT-15 = tested on: HCT-15
RXF 393 = tested on: RXF 393
HCT-116 = tested on: HCT-116
NCI/ADR-RES = tested on: NCI/ADR-RES
OVCAR-8 = tested on: OVCAR-8
CCRF-CEM = tested on: CCRF-CEM
IGROV-1 = tested on: IGROV-1
MCF7 = tested on: MCF7
HOP-62 = tested on: HOP-62
LOX IMVI = tested on: LOX IMVI
HT-29 = tested on: HT-29
SF-268 = tested on: SF-268
SN12C = tested on: SN12C
HCC 2998 = tested on: HCC 2998
SF-295 = tested on: SF-295
Malme-3M = tested on: Malme-3M
NCI-H226 = tested on: NCI-H226
K562 = tested on: K562
NCI-H522 = tested on: NCI-H522
CAKI-1 = tested on: CAKI-1
T47D = tested on: T47D
SW-620 = tested on: SW-620
SK-MEL-28 = tested on: SK-MEL-28
SR = tested on: SR
MDA-MB-231 = tested on: MDA-MB-231
COLO 205 = tested on: COLO 205
U-251 = tested on: U-251
Hs-578T = tested on: Hs-578T
ACHN = tested on: ACHN
OVCAR-3 = tested on: OVCAR-3
A498 = tested on: A498
MDA-N = tested on: MDA-N
HOP-92 = tested on: HOP-92
SNB-19 = tested on: SNB-19
DU-145 = tested on: DU-145
OVCAR-5 = tested on: OVCAR-5
TK-10 = tested on: TK-10
SNB-75 = tested on: SNB-75
BT-549 = tested on: BT-549
UO-31 = tested on: UO-31
HL-60 = tested on: HL-60
SF-539 = tested on: SF-539
MOLT-4 = tested on: MOLT-4
UACC-62 = tested on: UACC-62
PC-3 = tested on: PC-3
SK-MEL-5 = tested on: SK-MEL-5
UACC-257 = tested on: UACC-257
EKVX = tested on: EKVX
A549 = tested on: A549
SK-OV-3 = tested on: SK-OV-3
M14 = tested on: M14

Measured: GI50

COc1ccc(COC(=O)NCC(=O)NC(C)C(=O)NC(Cc2ccccc2)C(=O)OCc2ccccc2)cc1 (configuration not stated)
> 100 µM and 61.2 µM: HCT-15
inactive: MDA-MB-435 27.6 µM and 22.1 µM | NCI-H460 10.8 µM | RPMI-8226 29.6 µM and 26.7 µM | 786-0 20 µM and 29.2 µM | NCI-H23 37.9 µM | OVCAR-4 34 µM and 22.3 µM | RXF 393 16.1 µM | HCT-116 33.5 µM and 42.5 µM | NCI/ADR-RES > 100 µM and 67.1 µM | OVCAR-8 > 100 µM and 74.5 µM | CCRF-CEM 21.5 µM and 13.6 µM | IGROV-1 45.2 µM and 29.8 µM | MCF7 17 µM | HOP-62 24.7 µM and 22.3 µM | LOX IMVI 28.1 µM and 19.4 µM | HT-29 26.4 µM and 18.4 µM | SF-268 24.3 µM and 35 µM | SN12C 24.2 µM and 31.5 µM | HCC 2998 20.9 µM and 14.8 µM | SF-295 21.1 µM and 22.3 µM | Malme-3M 19.2 µM and 36.6 µM | NCI-H226 27.3 µM and 34.9 µM | K562 26.5 µM and 38.7 µM | NCI-H522 12.2 µM and 16.5 µM | CAKI-1 20 µM and 21.1 µM | T47D 19.8 µM and 30.1 µM | SW-620 33.3 µM and 45.8 µM | SK-MEL-28 18.9 µM and 19.4 µM | SR 28.3 µM and 25 µM | MDA-MB-231 20 µM and 25.6 µM | COLO 205 24.4 µM and 24.2 µM | U-251 22.2 µM and 21.9 µM | Hs-578T 23.9 µM and 25.5 µM | ACHN 21.3 µM and 19.8 µM | OVCAR-3 22.1 µM and 24.4 µM | A498 38.8 µM and 22.5 µM | MDA-N 25.9 µM and 27.4 µM

Cc1nc(=O)n2c(c1C(=O)Nc1ccc(Cl)cc1)NCC2
inactive: HOP-92 47.8 µM

CN(C)c1ccc(/C=C2\N=C(N/N=C/c3ccccc3O)NC2=O)cc1
inactive: MDA-MB-435 32.8 µM | RPMI-8226 38.6 µM | SNB-19 41.9 µM | RXF 393 23.9 µM | HOP-62 22.5 µM | HT-29 34.3 µM | SF-268 34.4 µM | DU-145 32.3 µM | SN12C 36.7 µM | HCC 2998 36.9 µM | NCI-H226 20.5 µM | OVCAR-5 49.9 µM | TK-10 25.6 µM | SNB-75 31.2 µM | SK-MEL-28 25.1 µM | BT-549 44.7 µM | HOP-92 24 µM | COLO 205 31.3 µM | Hs-578T 68.9 µM | A498 25.1 µM | MDA-N 39.1 µM

O=C1c2ccccc2C(=O)N1CC1S(=O)(=O)OCCOS1(=O)=O
> 100 µM: HCT-15
inactive: UO-31 > 100 µM | MDA-MB-435 > 100 µM | NCI-H460 > 100 µM | RPMI-8226 > 100 µM | 786-0 > 100 µM | SNB-19 > 100 µM | NCI-H23 > 100 µM | HL-60 > 100 µM | OVCAR-4 > 100 µM | RXF 393 > 100 µM | HCT-116 > 100 µM | NCI/ADR-RES > 100 µM | OVCAR-8 > 100 µM | SF-539 98.4 µM | MOLT-4 > 100 µM | UACC-62 > 100 µM | CCRF-CEM > 100 µM | PC-3 > 100 µM | IGROV-1 > 100 µM | MCF7 > 100 µM | HOP-62 > 100 µM | LOX IMVI > 100 µM | SK-MEL-5 > 100 µM | HT-29 > 100 µM | SF-268 > 100 µM | DU-145 > 100 µM | SN12C > 100 µM | UACC-257 > 100 µM | HCC 2998 > 100 µM | SF-295 > 100 µM | Malme-3M > 100 µM | NCI-H226 > 100 µM | K562 > 100 µM | EKVX > 100 µM | NCI-H522 > 100 µM | CAKI-1 > 100 µM | OVCAR-5 > 100 µM | T47D > 100 µM | SW-620 > 100 µM | TK-10 > 100 µM | SNB-75 > 100 µM | SK-MEL-28 > 100 µM | SR 44.1 µM | A549 > 100 µM | MDA-MB-231 > 100 µM | SK-OV-3 > 100 µM | HOP-92 > 100 µM | COLO 205 > 100 µM | U-251 > 100 µM | M14 > 100 µM | Hs-578T > 100 µM | ACHN > 100 µM | OVCAR-3 > 100 µM | A498 > 100 µM | MDA-N > 100 µM

Nc1ncn(C2OC(CO)C(O)C2O)c(=O)n1 (configuration not stated)
735 nM (active) and 1.22 µM (inactive): MOLT-4
